Reference: PubChem BioAssay AID248 (DTP/NCI, 2004)
Where “and” joins values, the source holds several entries; their conditions need not be identical. Identical values can stand only once. Inconclusive results and toxic doses are left out. No stated cut-off is given here; in the data, active means T/C of 150% or more; inactive means T/C below 125%. Peptide text beside a SMILES is read from it. * marks the point of attachment. Boc = CC(C)(C)OC(=O)*; Bn = c1ccc(C*)cc1

System: L1210 leukemia ip in BDF1 mice, survival T/C
Experiment: NCI In Vivo Anticancer Drug Screen. Data for tumor model L1210 Leukemia (intraperitoneal) in B6D2F1 (BDF1) mice
Conditions: endpoint: mean survival time, higher = longer survival
Outline: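 In this screen, tumor-bearing mice given compound are compared to those given vehicle, and their survival values are reported as a treated-to-control quotient.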

[1] = dose: 100.0 mg/kg/injection, schedule: Q01DX001 (ip), vehicle: carboxymethylcellulose (CMC)
[2] = dose: 200.0 mg/kg/injection, schedule: Q01DX001 (ip), vehicle: carboxymethylcellulose (CMC)
[3] = dose: 100.0 mg/kg/injection, schedule: Q01DX001 (ip), vehicle: saline
[4] = dose: 200.0 mg/kg/injection, schedule: Q01DX001 (ip), vehicle: saline
[5] = dose: 400.0 mg/kg/injection, schedule: Q01DX001 (ip), vehicle: saline
[6] = dose: 75.0 mg/kg/injection, schedule: Q01DX001 (ip), vehicle: saline
[7] = dose: 100.0 mg/kg/injection, schedule: Q01DX009 (ip), vehicle: Klucel (hydroxypropylcellulose) (HPC)
[8] = dose: 200.0 mg/kg/injection, schedule: Q01DX009 (ip), vehicle: Klucel (hydroxypropylcellulose) (HPC)
[9] = dose: 100.0 mg/kg/injection, schedule: Q04DX003 (ip), vehicle: saline
[10] = dose: 200.0 mg/kg/injection, schedule: Q04DX003 (ip), vehicle: saline
[11] = dose: 400.0 mg/kg/injection, schedule: Q04DX003 (ip), vehicle: saline
[12] = dose: 100.0 mg/kg/injection, schedule: Q01DX001 (ip), vehicle: Klucel (hydroxypropylcellulose) (HPC)
[13] = dose: 200.0 mg/kg/injection, schedule: Q01DX001 (ip), vehicle: Klucel (hydroxypropylcellulose) (HPC)
[14] = dose: 400.0 mg/kg/injection, schedule: Q01DX001 (ip), vehicle: Klucel (hydroxypropylcellulose) (HPC)
[15] = dose: 100.0 mg/kg/injection, schedule: Q04DX002 (ip), vehicle: Klucel (hydroxypropylcellulose) (HPC)
[16] = dose: 400.0 mg/kg/injection, schedule: Q04DX002 (ip), vehicle: Klucel (hydroxypropylcellulose) (HPC)
[17] = dose: 100.0 mg/kg/injection, schedule: Q04DX003 (ip), vehicle: Klucel (hydroxypropylcellulose) (HPC)
[18] = dose: 200.0 mg/kg/injection, schedule: Q04DX003 (ip), vehicle: Klucel (hydroxypropylcellulose) (HPC)
[19] = dose: 400.0 mg/kg/injection, schedule: Q04DX003 (ip), vehicle: Klucel (hydroxypropylcellulose) (HPC)

Measured: T/C

Cc1ccc2cc(-c3ccc(C4CCCCC4)cc3)c(N=O)n2c1
inactive: dose: 50.0 mg/kg/injection, schedule: Q01DX001 (ip), vehicle: carboxymethylcellulose (CMC) 93 % of control | [1] 96 % of control | [2] 90 % of control | dose: 400.0 mg/kg/injection, schedule: Q01DX001 (ip), vehicle: carboxymethylcellulose (CMC) 90 % of control

CCCCCCSCCO
inactive: [3] 94 % of control | [4] 94 % of control | [5] 93 % of control

CNC(=O)Oc1cccc(N)c1
inactive: [6] 109 % of control | dose: 150.0 mg/kg/injection, schedule: Q01DX001 (ip), vehicle: saline 114 % of control

COc1cccc(Cc2c[nH]c(=S)[nH]c2=O)c1
inactive: [7] 108 % of control | [8] 96 % of control

CC(C)(C)OC(=O)NC(CO)C(=O)NC(Cc1ccc(OCc2ccccc2)cc1)C(=O)NCC(=O)O (stereo not drawn) (Boc-Ser-Tyr(Bn)-Gly-OH; configuration not given here)
inactive: dose: 50.0 mg/kg/injection, schedule: Q01DX005 (ip), vehicle: saline 100 % of control | dose: 200.0 mg/kg/injection, schedule: Q01DX005 (ip), vehicle: saline 105 % of control | dose: 400.0 mg/kg/injection, schedule: Q01DX005 (ip), vehicle: saline 91 % of control

COc1ccc(Cl)cc1NC(=O)Nc1c(C)n(C)n(-c2ccccc2)c1=O
inactive: [3] 90 % of control | dose: 100.0 mg/kg/injection, schedule: Q01DX009 (ip), vehicle: saline with Tween-80 89 % of control | [9] 97 % of control | [4] 89 % of control | dose: 200.0 mg/kg/injection, schedule: Q01DX009 (ip), vehicle: saline with Tween-80 89 % of control | [10] 101 % of control | [5] 94 % of control | dose: 400.0 mg/kg/injection, schedule: Q01DX009 (ip), vehicle: saline with Tween-80 87 % of control | [11] 92 % of control

COC(=O)C(C)NC(=O)C(C)NC(=O)c1cnc2ccccc2n1 (stereo not drawn)
inactive: [1] 89 % of control | [2] 93 % of control

CC1C(=O)C2C1CS2(=O)=O (stereo not drawn)
inactive: dose: 100.0 mg/kg/injection, schedule: Q04DX002 (ip), vehicle: DMSO 97 % of control | dose: 200.0 mg/kg/injection, schedule: Q04DX002 (ip), vehicle: DMSO 97 % of control | dose: 400.0 mg/kg/injection, schedule: Q04DX002 (ip), vehicle: DMSO 91 % of control

Cc1cccc(NC(=O)CSc2ccc(Cl)cc2)c1
inactive: dose: 100.0 mg/kg/injection, schedule: Q04DX002 (sc), vehicle: olive oil, sesame oil, peanut oil 100 % of control | dose: 200.0 mg/kg/injection, schedule: Q04DX002 (sc), vehicle: olive oil, sesame oil, peanut oil 106 % of control | dose: 400.0 mg/kg/injection, schedule: Q04DX002 (sc), vehicle: olive oil, sesame oil, peanut oil 89 % of control

O=C(Cc1ccc([N+](=O)[O-])cc1)NCCc1ccc2c(c1)OCO2
inactive: [3] 96 % of control | [4] 102 % of control | [5] 100 % of control

CN1CC(N(C)C)CCC/C=C\C1=O (stereo not drawn)
inactive: [6] 102 % of control

CC12CCC3C4CCC(O)CC4=CCC3C1CCC2=O (stereo not drawn)
inactive: dose: 50.0 mg/kg/injection, schedule: Q01DX001 (ip), vehicle: Klucel (hydroxypropylcellulose) (HPC) 107 % of control | [12] 104 % of control and 107 % of control | [13] 92 % of control | [14] 104 % of control

CCCCOC(=O)c1ccccc1C(=O)OC1CCCCC1
inactive: dose: 75.0 mg/kg/injection, schedule: Q01DX001 (ip), vehicle: Klucel (hydroxypropylcellulose) (HPC) 115 % of control | dose: 150.0 mg/kg/injection, schedule: Q01DX001 (ip), vehicle: Klucel (hydroxypropylcellulose) (HPC) 103 % of control | dose: 300.0 mg/kg/injection, schedule: Q01DX001 (ip), vehicle: Klucel (hydroxypropylcellulose) (HPC) 100 % of control

COC1OC2COC(c3ccccc3)OC2C(OC(C)=O)C1OC(C)=O (stereo not drawn)
inactive: [15] 95 % of control | dose: 200.0 mg/kg/injection, schedule: Q04DX002 (ip), vehicle: Klucel (hydroxypropylcellulose) (HPC) 117 % of control | [16] 120 % of control

COc1cc(OC)c2c(C)c(C#N)oc2c1
inactive: [17] 97 % of control | [18] 97 % of control | [19] 98 % of control

Nc1nc(=O)n(C2CCCO2)cc1Br (stereo not drawn)
inactive: [3] 100 % of control | [4] 103 % of control | [5] 87 % of control

CC1(N=C(N)CSSCC(N)=NC2(C)CCC(C(C)(C)C)CC2)CCC(C(C)(C)C)CC1 (stereo not drawn)
inactive: dose: 0.7 mg/kg/injection, schedule: Q01DX009 (ip), vehicle: other 93 % of control and 96 % of control | dose: 1.0 mg/kg/injection, schedule: Q01DX001 (ip), vehicle: other 107 % of control | dose: 1.0 mg/kg/injection, schedule: Q01DX009 (ip), vehicle: other 101 % of control and 103 % of control | dose: 1.56 mg/kg/injection, schedule: Q01DX009 (ip), vehicle: other 97 % of control and 101 % of control | dose: 2.0 mg/kg/injection, schedule: Q01DX001 (ip), vehicle: other 105 % of control | dose: 2.35 mg/kg/injection, schedule: Q01DX009 (ip), vehicle: other 105 % of control and 90 % of control | dose: 3.12 mg/kg/injection, schedule: Q01DX009 (ip), vehicle: carboxymethylcellulose (CMC) 112 % of control | dose: 4.0 mg/kg/injection, schedule: Q01DX001 (ip), vehicle: other 111 % of control | dose: 5.0 mg/kg/injection, schedule: Q04DX003 (ip), vehicle: other 95 % of control | dose: 6.25 mg/kg/injection, schedule: Q01DX009 (ip), vehicle: carboxymethylcellulose (CMC) 102 % of control | dose: 6.25 mg/kg/injection, schedule: Q01DX009 (ip), vehicle: other 98 % of control | dose: 10.0 mg/kg/injection, schedule: Q04DX003 (ip), vehicle: other 105 % of control | dose: 12.5 mg/kg/injection, schedule: Q01DX009 (ip), vehicle: other 102 % of control | dose: 12.5 mg/kg/injection, schedule: Q04DX002 (ip), vehicle: other 104 % of control and 90 % of control | dose: 25.0 mg/kg/injection, schedule: Q04DX002 (ip), vehicle: carboxymethylcellulose (CMC) 102 % of control and 112 % of control

CCCCN(C)/N=N/c1nn[nH]n1
inactive: [15] 92 % of control | [16] 113 % of control

CC(=O)c1ccc2ccccc2c1O
inactive: dose: 100.0 mg/kg/injection, schedule: Q01DX009 (ip), vehicle: other 97 % of control | [9] 101 % of control | dose: 200.0 mg/kg/injection, schedule: Q01DX009 (ip), vehicle: other 103 % of control | [10] 90 % of control | dose: 400.0 mg/kg/injection, schedule: Q01DX009 (ip), vehicle: other 106 % of control | [11] 88 % of control

COc1cc(Cc2cc(OC)c(O)c(OC)c2)cc(OC)c1O
inactive: [7] 107 % of control | [17] 92 % of control | [8] 93 % of control | [18] 97 % of control | dose: 400.0 mg/kg/injection, schedule: Q01DX009 (ip), vehicle: Klucel (hydroxypropylcellulose) (HPC) 101 % of control | [19] 95 % of control

CC12CCC3C4CCC(=O)C(O)=C4CCC3C1CCC2OC(=O)CCC1CCCC1 (stereo not drawn)
inactive: dose: 100.0 mg/kg/injection, schedule: Q01DX009 (sc), vehicle: steriod suspending solution 96 % of control | dose: 200.0 mg/kg/injection, schedule: Q01DX009 (sc), vehicle: steriod suspending solution 107 % of control | dose: 400.0 mg/kg/injection, schedule: Q01DX009 (sc), vehicle: steriod suspending solution 100 % of control

Cn1nc(C(=O)O)c(=O)[nH]c1=S
inactive: dose: 100.0 mg/kg/injection, schedule: Q01DX Z (ip), vehicle: methylcellulose (MC) 97 % of control | dose: 200.0 mg/kg/injection, schedule: Q01DX Z (ip), vehicle: methylcellulose (MC) 92 % of control

C#CCN1CCC2=C(C1)c1c(O)cc(C(C)C(C)CCCCC)cc1OC2(C)C (stereo not drawn)
inactive: [12] 95 % of control | [13] 92 % of control | [14] 103 % of control
